The results in this text go back to ChEMBL document CHEMBL3832068, “DailyMed|setid=9ddd37f9-299e-4c98-91ed-deeb72c63b00 | GRIS-PEG - griseofulvin tablet, film coated|State of Florida DOH Central Pharmacy”.

Series [1] is described as follows: (§1) Mean pharmacokinetic parameters for Griseofulvin following single dose administration of unaltered 250 mg ultramicrocrystalline Griseofulvin tablets, with or without applesauce, to 24 healthy volunteers. Conditions: human, in vivo, dietary status Fasting, dosed compound id 34, dosed compound name GRISEOFULVIN, gender male and female, regimen Single dose, tissue Plasma. Format: ADME, organism-based. Also on record: dose 250 mg, route oral.

The test system of a further series is Homo sapiens. Described as §1. Format: ADME, organism-based. The arrangement: dose 250 mg, route oral. Conditions: in vivo, po, dietary status Fasting, dosed compound id 34, dosed compound name GRISEOFULVIN, gender male and female, regimen Single dose, tissue Plasma.

For `COC1=CC(=O)C[C@@H](C)[C@]12Oc1c(Cl)c(OC)cc(OC)c1C2=O` [GRISEOFULVIN], the AUC in series [1] (po, 250 mg) was found to be 8.62 µg·h/mL; in the series with Homo sapiens it was 9.02371 µg·h/mL. Besides, the Cmax in series [1] (po, 250 mg) turned out to be 0.601 µg/mL; in the series with Homo sapiens, 0.67261 µg/mL. Besides, the Tmax in series [1] (dose 250 mg, route oral) worked out at 4.04 h; in the series with Homo sapiens (dose 250 mg) it was 3.08 h.

What is called AUC is the area under the concentration-time curve, a measure of exposure. Lower therefore signals low exposure. Broadly, the Cmax is the highest concentration seen after dosing. Broadly, the Tmax is the time at which the peak concentration occurs.
